Data reported in patent US20240024335A1, “TREATMENT AND PREVENTION OF ANAEMIA OF INFLAMMATION” (Sanquin IP B.V., priority 2020, published 2024).
Entries after “also recorded” stand apart in the source; their conditions may differ.

Assays:
donor RBCs = assay: Flow assay: adhesion of donor RBC to laminin-α5 in response to IL-8 and sera from sepsis patients
sickle cell patients = settings: Ataga et al.; cited from earlier work
[1] = in vivo; cited from earlier work

| SMILES | Adhesion of donor RBCs to laminin-α5 in response to IL-8 incubation (donor RBCs; RBCs pre-incubated with inhibitor 30 min, then IL-8 30 min at 37° C., FIG. 8B, 8C) | Adhesion of donor RBCs to laminin-α5 in response to sera of sepsis patients (donor RBCs; RBCs pre-incubated with inhibitor 30 min, then sera of sepsis patients 30 min at 37° C., FIG. 8D) | Reduction of vaso-occlusive events (sickle cell patients) | AI-mediated degradation of RBC in vitro (donor RBCs; in vitro, see Example 1) | Tolerability [1] |
| --- | --- | --- | --- | --- | --- |
| Clc1ccccc1C(c1ccccc1)(c1ccccc1)n1cccn1 [TRAM34, 1-[(2-chlorophenyl)diphenylmethyl]-1H-pyrazole] | inhibited; also recorded: counteracted | inhibited |  |  |  |
| NC(=O)C(c1ccccc1)(c1ccc(F)cc1)c1ccc(F)cc1 [Senicapoc, 4-fluoro-α-(4-fluorophenyl)-α-phenyl-benzeneacetamide] |  |  | did not result in reduction of vaso-occlusive events | counteracts AI-mediated degradation of RBC | well-tolerated |
